Assay results from patent US6492365B1, “Microsomal triglyceride transfer protein” (Bristol-Myers Squibb Company, priority 1992, dated 2002).
Where a name gives a salt, the structure may show the parent alone.

| Structure (SMILES) | melting point [°C] |
| --- | --- |
| O=C1c2ccccc2CN1C1CCN(CC=C(c2ccccc2)c2ccccc2)CC1 (as salt: hydrochloride) [Example 11, 2-[1-(3,3-Diphenyl-2-propenyl)-4-piperidinyl]-2,3-dihydro-1H-isoindol-1-one, monohydrochloride] | 231 to 235 |
| O=C1c2ccccc2CN1C1CCN(Cc2ccccc2)CC1 (as salt: hydrochloride) [Example 13, 2,3-Dihydro-2-[1-(phenylmethyl)-4-piperidinyl]-1H-isoindol-1-one, monohydrochloride] | 271 to 274 |
| O=C1c2ccccc2CN1C1CCN(CCCc2ccccc2)CC1 (as salt: hydrochloride) [Example 14, 2,3-Dihydro-2-[1-(3-phenylpropyl)-4-piperidinyl]-1H-isoindol-1-one, monohydrochloride] | 229 to 231 |
| CCCCC(CCCC)CCN1CCC(N2Cc3ccccc3C2=O)CC1 (as salt: hydrochloride) [Example 17, 2-[1-(3-Butylheptyl)-4-piperidinyl]-2,3-dihydro-1H-isoindol-1-one, monohydrochloride] | 185 to 187 |
| O=C1c2ccccc2CN1C1CCN(C/C=C/c2ccccc2Oc2ccccc2)CC1 (as salt: hydrochloride) [Example 20, (E)-2,3-Dihydro-2-[1-[3-(2-phenoxyphenyl)-2-propenyl]-4-piperidinyl]-1H-isoindol-1-one, monohydrochloride] | 215 to 218 |
| COc1ccccc1CCCN1CCC(N2Cc3ccccc3C2=O)CC1 (as salt: hydrochloride) [Example 21, 2,3-Dihydro-2-[1-[3-(2-methoxyphenyl)propyl]-4-piperidinyl]-1H-isoindol-1-one, monohydrochloride] | 191 to 195 |
| O=C1CC(CN2CCN(c3ccccc3)CC2)Cc2ccccc21 (centres unmarked) (as salt: hydrochloride) [Example 23, 3,4-Dihydro-3-[(4-phenyl-1-piperazinyl)methyl]-1-(2H)-naphthalenone, monohydrochloride] | 243 to 246 |
| COc1ccccc1N1CCN(C(=O)C2CC(=O)c3ccccc3C2)CC1 (centres unmarked) (as salt: hydrochloride) [Example 25, 3,4-Dihydro-3-[[4-(2-methoxyphenyl)-1-piperazinyl]-carbonyl]-1(2H)-naphthalenone, monohydrochloride] | 197 to 199 |
| COc1ccccc1N1CCN(CC2CC(=O)c3ccc(F)cc3C2)CC1 (centres unmarked) [Example 22, 6-Fluoro-3,4-dihydro-3-[[4-(2-methoxyphenyl)-1-piperazinyl]-methyl]-1(2H)-naphthalenone] | 111 to 113 |

More lines, now with the values ahead:

| melting point [°C] | Structure (SMILES) |
| --- | --- |
| 211 to 212 | O=C1CC(CN2CCN(C(c3ccccc3)c3ccc(Cl)cc3)CC2)Cc2cc(F)ccc21 (centres unmarked) (as salt: hydrochloride) [Example 27, 3-[[4-[(4-Chlorophenyl)phenylmethyl]-1-piperazinyl]methyl]-6-fluoro-3,4-dihydro-1(2H)-naphthalenone, dihydrochloride] |
| 180 to 182 | COc1ccc(C(C(=O)NC2CCN(CCc3ccccc3)CC2)c2ccc(OC)cc2)cc1 (as salt: hydrochloride) [Example 29, 4-Methoxy-α-(4methoxyphenyl)-N-[1-(2-phenylethyl)-4-piperidinyl]benzeneacetamide, monohydrochloride] |
| 263 to 264 | O=C(NC1CCN(CCc2ccccc2)CC1)C(c1ccccc1)c1ccccc1 (as salt: hydrochloride) [Example 30, α-Phenyl-N-[1-(phenylethyl)-4-piperidinyl]-benzeneacetamide, monohydrochloride] |
| 269 to 271 | O=C1c2ccc(Cl)cc2CN1C1CCN(Cc2ccccc2)CC1 (as salt: hydrochloride) [Example 31, 5-Chloro-2,3-dihydro-2-[1-(phenylmethyl)-4-piperidinyl]-1H-isoindol-1-one, monohydrochloride] |
| 147 to 152 | CCCCC(=CCN1CCC(N2Cc3ccccc3C2=O)CC1)CCCC (as salt: hydrochloride) [Example 32, 2-[1-(3-Butyl-2-heptenyl)-4-piperidinyl]-2,3-dihydro-1H-isoindol-1-one, monohydrochloride] |
| 127 to 134 | O=C1c2ccccc2CN1C1CCN(C/C=C/CC(c2ccccc2)c2ccccc2)CC1 (as salt: hydrochloride) [Example 33, 2-[1-(5,5-Diphenyl-2-pentenyl)-4-piperidinyl]-2,3-dihydro-1H-isoindol-1-one, monohydrochloride] |
| 199 to 202 | O=C1c2ccccc2CN1C1CCN(CCCc2ccccc2Oc2ccccc2)CC1 (as salt: hydrochloride) [Example 34, 2,3-Dihydro-2-[1-[3-(2-phenoxyphenyl)propyl]-4-piperidinyl]-1H-isoindol-1-one, monohydrochloride] |
| 165 to 169 | O=C1c2ccccc2CN1C1CCN(C(c2ccccc2)c2ccccc2)CC1 (as salt: hydrochloride) [Example 35, 2,3-Dihydro-2-[1-(diphenylmethyl)-4-piperidinyl]-1H-isoindol-1-one, monohydrochloride] |
| 174 to 177 | O=C1c2ccccc2CN1C1CCN(C/C=C\CC(c2ccccc2)c2ccccc2)CC1 (as salt: hydrochloride) [Example 36, (Z)-2,3-Dihydro-2-[1-(5,5-diphenyl-2-pentenyl)-4-piperidinyl]-1H-isoindol-1-one, monohydrochloride] |
| 170 to 172 | COc1ccccc1C(=O)NC1CCN(CCC(c2ccccc2)c2ccccc2)CC1 (as salt: hydrochloride) [Example 38, N-[1-(3,3-Diphenylpropyl)-4-piperidinyl]-2-methoxybenzamide, monohydrochloride] |
| 109 to 116 | O=C(NC1CCN(CCC(c2ccccc2)c2ccccc2)CC1)c1ccccn1 (as salt: hydrochloride) [Example 40, N-[1-(3,3-Diphenylpropyl)-4-piperidinyl]-2-pyridineamide, monohydrochloride] |
| 102 to 105 | CC(=O)N(Cc1ccccc1)C1CCN(CCC(c2ccccc2)c2ccccc2)CC1 (as salt: hydrochloride) [Example 41, N-[1-(3,3-Diphenylpropyl)-4-piperidinyl]-N-(phenylmethyl)acetamide, monohydrochloride] |
| 115 to 120 | O=C(c1ccccc1)N(Cc1ccccc1)C1CCN(CCC(c2ccccc2)c2ccccc2)CC1 (as salt: hydrochloride) [Example 42, N-[1-(3,3-Diphenylpropyl)-4-piperidinyl]-N-(phenylmethyl)benzamide, monohydrochloride] |
| 153 to 154 | O=C(Cc1c[nH]c2ccccc12)NC1CCN(Cc2ccccc2)CC1 [Example 28, N-[1-(Phenylmethyl)-4-piperidinyl]-1H-indole-3-acetamide] |
